From ChEMBL document CHEMBL1944604, “Aminopurine based JNK inhibitors for the prevention of ischemia reperfusion injury” (Bioorg Med Chem Lett, 2012)
In brackets after ≈: the same amount, converted by molar mass.

How the values were obtained:
[1] = Metabolic stability of the compound in mouse liver microsomes assessed as compound remaining at 3 uM after 30 mins; format: ADME, Microsome; conditions: read-out: Stability
[2] = biological target: T1, c-Jun N-terminal kinase, JNK (Homo sapiens, UniProt P45983+P53779+P45984); experiment: Inhibition of JNK-mediated cJun phosphorylation in anisomysin-stimulated human Jurkat T cells pretreated for 30 mins before anisomysin stimulation measured after 10 mins by DELFIA assay; format: cell-based
[3] = Mean residence time in cynomolgus monkey at 1 mg/kg, iv bolus; format: ADME, organism-based, Macaca fascicularis; set-up: dose 1 mg/kg, route intravenous; conditions: in vivo
[4] = Volume of distribution at steady state in rat at 10 mg/kg, iv infusion; format: ADME, organism-based; set-up: dose 10 mg/kg, route intravenous; conditions: in vivo, read-out: Vdss
[5] = Clearance in rat at 10 mg/kg, iv infusion; format: ADME, organism-based; set-up: dose 10 mg/kg, route intravenous; conditions: in vivo
[6] = biological target: Mitogen-activated protein kinase 9 (Homo sapiens, UniProt P45984); experiment: Inhibition of full length Hexa-His-tagged JNK2 using GST-tagged cJun and [gamma33P]ATP as substrate after 60 mins by scintillation counting
Sequence of Mitogen-activated protein kinase 9 (P45984 whole entry): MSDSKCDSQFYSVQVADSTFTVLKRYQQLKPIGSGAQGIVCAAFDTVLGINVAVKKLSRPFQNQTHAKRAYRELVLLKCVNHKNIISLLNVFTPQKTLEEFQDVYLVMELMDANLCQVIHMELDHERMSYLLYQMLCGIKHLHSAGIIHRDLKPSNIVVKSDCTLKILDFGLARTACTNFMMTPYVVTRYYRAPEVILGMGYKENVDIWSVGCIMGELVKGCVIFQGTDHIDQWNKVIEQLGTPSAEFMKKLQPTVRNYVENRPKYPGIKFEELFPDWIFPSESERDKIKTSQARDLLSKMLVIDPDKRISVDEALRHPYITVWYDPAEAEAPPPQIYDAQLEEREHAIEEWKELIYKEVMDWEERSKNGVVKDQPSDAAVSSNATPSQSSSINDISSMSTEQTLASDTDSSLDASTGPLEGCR

[7] = Volume of distribution at steady state in cynomolgus monkey at 1 mg/kg, iv bolus; format: ADME, organism-based, Macaca fascicularis; set-up: dose 1 mg/kg, route intravenous; conditions: in vivo, read-out: Vdss
Cytochrome P450 2C9 = Cytochrome P450 2C9 (Homo sapiens, UniProt P11712); experiment: Inhibition of recombinant CYP2C9 up to 30 uM; format: ADME; conditions: recombinant enzyme
Sequence of Cytochrome P450 2C9 (P11712 whole entry): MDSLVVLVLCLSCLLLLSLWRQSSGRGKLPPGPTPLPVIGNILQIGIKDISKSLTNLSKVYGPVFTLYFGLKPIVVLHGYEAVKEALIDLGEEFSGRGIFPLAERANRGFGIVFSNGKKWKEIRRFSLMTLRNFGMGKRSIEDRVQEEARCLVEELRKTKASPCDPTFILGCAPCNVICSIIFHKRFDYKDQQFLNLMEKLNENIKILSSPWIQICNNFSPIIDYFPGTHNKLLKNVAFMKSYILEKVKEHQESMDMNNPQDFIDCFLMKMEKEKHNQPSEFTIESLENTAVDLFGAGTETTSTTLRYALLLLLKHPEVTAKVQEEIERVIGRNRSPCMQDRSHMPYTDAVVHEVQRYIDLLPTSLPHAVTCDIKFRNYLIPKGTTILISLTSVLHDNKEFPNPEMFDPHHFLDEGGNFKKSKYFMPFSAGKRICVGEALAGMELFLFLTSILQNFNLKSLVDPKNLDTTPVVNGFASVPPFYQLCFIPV

[8] = Metabolic stability of the compound in monkey liver microsomes assessed as compound remaining at 3 uM after 30 mins; format: ADME, Macaca mulatta, Microsome; conditions: rhesus monkey, read-out: Stability
CYP2B6 = biological target: T2, CYP2B6 (Homo sapiens, UniProt P20813); experiment: Drug metabolism assessed as CYP2B6-mediated compound loss after 30 mins; format: ADME; conditions: recombinant enzyme; read-out: Drug metabolism
T2 sequence (P20813 whole entry): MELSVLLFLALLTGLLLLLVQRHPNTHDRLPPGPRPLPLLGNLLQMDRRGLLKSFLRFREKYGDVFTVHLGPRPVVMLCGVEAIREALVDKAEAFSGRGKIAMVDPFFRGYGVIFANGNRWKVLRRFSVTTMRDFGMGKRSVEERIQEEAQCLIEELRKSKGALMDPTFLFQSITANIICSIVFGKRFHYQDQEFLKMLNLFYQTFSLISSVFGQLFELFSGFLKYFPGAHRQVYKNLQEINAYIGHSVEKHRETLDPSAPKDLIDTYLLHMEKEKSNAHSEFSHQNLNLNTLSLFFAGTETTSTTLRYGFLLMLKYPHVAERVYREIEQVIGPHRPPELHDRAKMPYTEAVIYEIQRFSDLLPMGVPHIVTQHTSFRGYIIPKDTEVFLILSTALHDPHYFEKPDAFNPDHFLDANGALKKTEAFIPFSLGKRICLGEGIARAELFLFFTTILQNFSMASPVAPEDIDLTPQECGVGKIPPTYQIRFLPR

Rattus norvegicus [9] = experiment: Antiinflammatory activity in po dosed CD rat whole blood assessed as inhibition of LPS-induced TNFalpha production administered 1 hr before LPS challenge measured by […]; format: functional, organism-based
Rattus norvegicus [10] = experiment: Toxicity in rat non-anesthetized rat at 30 mg/kg, iv infusion administered 4 hrs for 4 consecutive days; format: organism-based; set-up: dose 30 mg/kg, route intravenous; conditions: in vivo
Rattus norvegicus [11] = experiment: Toxicity in rat non-anesthetized rat at 10 mg/kg, iv infusion administered 4 hrs for 4 consecutive days; format: organism-based; set-up: dose 10 mg/kg, route intravenous; conditions: in vivo
CYP3A4 = CYP3A4 (Homo sapiens, UniProt P08684); experiment: Drug metabolism assessed as CYP3A4-mediated compound loss after 30 mins; format: ADME; conditions: recombinant enzyme; read-out: Drug metabolism
Sequence of CYP3A4 (P08684 whole entry): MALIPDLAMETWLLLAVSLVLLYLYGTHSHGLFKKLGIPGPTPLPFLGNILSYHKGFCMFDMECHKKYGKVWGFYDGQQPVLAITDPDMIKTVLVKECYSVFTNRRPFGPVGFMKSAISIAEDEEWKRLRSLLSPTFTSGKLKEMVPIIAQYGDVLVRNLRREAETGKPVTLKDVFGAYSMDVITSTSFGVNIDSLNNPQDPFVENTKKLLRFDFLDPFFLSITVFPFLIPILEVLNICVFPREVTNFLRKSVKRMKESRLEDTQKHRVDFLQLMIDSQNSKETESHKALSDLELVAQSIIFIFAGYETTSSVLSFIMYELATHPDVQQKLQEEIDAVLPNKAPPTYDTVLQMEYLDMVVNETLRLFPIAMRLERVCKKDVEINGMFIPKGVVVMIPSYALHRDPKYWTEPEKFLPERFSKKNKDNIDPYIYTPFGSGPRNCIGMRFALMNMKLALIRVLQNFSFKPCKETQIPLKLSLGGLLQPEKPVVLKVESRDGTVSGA

[12] = Thermodynamic solubility of the compound at pH 5; format: physicochemical; conditions: buffer, read-out: Therm_solubility
CYP2D6 = CYP2D6 (Homo sapiens, UniProt P10635); experiment: Drug metabolism assessed as CYP2D6-mediated compound loss after 30 mins; format: ADME; conditions: recombinant enzyme; read-out: Drug metabolism
Sequence of CYP2D6 (P10635 whole entry): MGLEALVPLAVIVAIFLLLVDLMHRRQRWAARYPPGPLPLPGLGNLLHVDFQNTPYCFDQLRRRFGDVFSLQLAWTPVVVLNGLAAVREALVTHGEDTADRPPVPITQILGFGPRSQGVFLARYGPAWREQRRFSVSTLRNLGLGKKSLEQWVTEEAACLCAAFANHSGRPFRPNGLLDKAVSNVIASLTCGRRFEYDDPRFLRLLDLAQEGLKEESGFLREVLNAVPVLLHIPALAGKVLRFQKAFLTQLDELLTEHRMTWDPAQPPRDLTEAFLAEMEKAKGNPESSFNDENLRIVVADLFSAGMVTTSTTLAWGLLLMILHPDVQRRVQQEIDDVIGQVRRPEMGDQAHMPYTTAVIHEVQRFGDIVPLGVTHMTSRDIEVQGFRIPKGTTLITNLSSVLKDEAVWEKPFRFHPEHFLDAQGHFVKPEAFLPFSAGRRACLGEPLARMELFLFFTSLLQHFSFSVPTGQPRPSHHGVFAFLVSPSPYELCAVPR

[13] = biological target: Mitogen-activated protein kinase 8 (Homo sapiens, UniProt P45983); experiment: Inhibition of full length Hexa-His-tagged JNK1 using GST-tagged cJun and [gamma33P]ATP as substrate after 60 mins by scintillation counting
Sequence of Mitogen-activated protein kinase 8 (P45983 whole entry): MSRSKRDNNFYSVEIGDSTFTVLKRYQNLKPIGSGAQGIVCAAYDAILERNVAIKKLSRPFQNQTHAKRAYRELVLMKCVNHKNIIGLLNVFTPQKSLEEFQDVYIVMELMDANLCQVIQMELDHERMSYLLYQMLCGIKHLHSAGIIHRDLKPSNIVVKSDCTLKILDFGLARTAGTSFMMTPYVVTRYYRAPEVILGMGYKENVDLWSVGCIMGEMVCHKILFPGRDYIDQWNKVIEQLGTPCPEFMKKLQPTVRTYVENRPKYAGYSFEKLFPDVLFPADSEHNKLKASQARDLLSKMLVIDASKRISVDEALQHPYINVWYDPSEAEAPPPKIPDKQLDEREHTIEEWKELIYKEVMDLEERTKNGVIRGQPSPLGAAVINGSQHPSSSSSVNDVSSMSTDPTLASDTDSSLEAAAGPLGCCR

[14] = Metabolic stability of the compound in human liver microsomes assessed as compound remaining at 3 uM after 30 mins; format: ADME, Microsome; conditions: read-out: Stability
Rattus norvegicus [15] = experiment: Antiischemic activity in Lewis rat ischemia reperfusion model assessed as increase in survival rate at 10 mg/kg, iv bolus administered 15 mins before ischemia challenge relative to control; format: functional
[16] = biological target: T1, c-Jun N-terminal kinase, JNK; experiment: Inhibition of JNK-mediated cJun phosphorylation in human Jurkat T cells by Western blotting; format: cell-based
[17] = Volume of distribution at steady state in dog at 1 mg/kg, iv bolus; format: ADME, organism-based, Canis lupus familiaris; set-up: dose 1 mg/kg, route intravenous; conditions: in vivo, read-out: Vdss
[18] = AUC in rat at 10 mg/kg, iv infusion; format: ADME, organism-based; set-up: dose 10 mg/kg, route intravenous; conditions: plasma
[19] = biological target: Mitogen-activated protein kinase 10 (Homo sapiens, UniProt P53779); experiment: Inhibition of full length Hexa-His-tagged JNK3 using GST-tagged cJun and [gamma33P]ATP as substrate after 60 mins by scintillation counting
Sequence of Mitogen-activated protein kinase 10 (P53779 whole entry): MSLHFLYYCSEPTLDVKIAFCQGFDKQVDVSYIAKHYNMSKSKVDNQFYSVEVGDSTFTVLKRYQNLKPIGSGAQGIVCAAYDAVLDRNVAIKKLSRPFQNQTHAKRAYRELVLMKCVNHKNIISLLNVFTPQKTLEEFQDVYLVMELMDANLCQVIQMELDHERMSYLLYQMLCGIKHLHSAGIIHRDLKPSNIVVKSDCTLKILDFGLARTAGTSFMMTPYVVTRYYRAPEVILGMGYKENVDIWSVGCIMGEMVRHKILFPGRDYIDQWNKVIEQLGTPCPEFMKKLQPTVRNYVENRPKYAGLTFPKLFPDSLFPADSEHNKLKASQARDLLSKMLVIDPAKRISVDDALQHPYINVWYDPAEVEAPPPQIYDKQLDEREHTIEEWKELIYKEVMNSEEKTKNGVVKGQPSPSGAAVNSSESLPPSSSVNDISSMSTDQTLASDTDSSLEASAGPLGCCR

Hepatocyte [20] = experiment: Drug metabolism in human hepatocytes after 60 mins; format: ADME, cell-based; conditions: 1 h
[21] = Clearance in cynomolgus monkey at 1 mg/kg, iv bolus; format: ADME, organism-based, Macaca fascicularis; set-up: dose 1 mg/kg, route intravenous; conditions: in vivo
[22] = Metabolic stability of the compound in dog liver microsomes assessed as compound remaining at 3 uM after 30 mins; format: ADME, Canis lupus familiaris, Microsome; conditions: read-out: Stability
[23] = AUC in rat at 2 to 10 mg/kg, iv bolus; format: ADME, organism-based; set-up: dose 2-10 mg/kg, route intravenous; conditions: plasma
Mus musculus = experiment: Hepatoprotective activity in BALB/c mouse assessed as inhibition of concanavalin A-induced ALT elevation at 60 mg/kg, ip administered 1 hr prior Con A challenge; format: functional; conditions: route intraperitoneal
hERG (KCNH2) = hERG (KCNH2) (Homo sapiens, UniProt Q12809); experiment: Inhibition of human ERG at 10 uM
Sequence of hERG (KCNH2) (Q12809 whole entry): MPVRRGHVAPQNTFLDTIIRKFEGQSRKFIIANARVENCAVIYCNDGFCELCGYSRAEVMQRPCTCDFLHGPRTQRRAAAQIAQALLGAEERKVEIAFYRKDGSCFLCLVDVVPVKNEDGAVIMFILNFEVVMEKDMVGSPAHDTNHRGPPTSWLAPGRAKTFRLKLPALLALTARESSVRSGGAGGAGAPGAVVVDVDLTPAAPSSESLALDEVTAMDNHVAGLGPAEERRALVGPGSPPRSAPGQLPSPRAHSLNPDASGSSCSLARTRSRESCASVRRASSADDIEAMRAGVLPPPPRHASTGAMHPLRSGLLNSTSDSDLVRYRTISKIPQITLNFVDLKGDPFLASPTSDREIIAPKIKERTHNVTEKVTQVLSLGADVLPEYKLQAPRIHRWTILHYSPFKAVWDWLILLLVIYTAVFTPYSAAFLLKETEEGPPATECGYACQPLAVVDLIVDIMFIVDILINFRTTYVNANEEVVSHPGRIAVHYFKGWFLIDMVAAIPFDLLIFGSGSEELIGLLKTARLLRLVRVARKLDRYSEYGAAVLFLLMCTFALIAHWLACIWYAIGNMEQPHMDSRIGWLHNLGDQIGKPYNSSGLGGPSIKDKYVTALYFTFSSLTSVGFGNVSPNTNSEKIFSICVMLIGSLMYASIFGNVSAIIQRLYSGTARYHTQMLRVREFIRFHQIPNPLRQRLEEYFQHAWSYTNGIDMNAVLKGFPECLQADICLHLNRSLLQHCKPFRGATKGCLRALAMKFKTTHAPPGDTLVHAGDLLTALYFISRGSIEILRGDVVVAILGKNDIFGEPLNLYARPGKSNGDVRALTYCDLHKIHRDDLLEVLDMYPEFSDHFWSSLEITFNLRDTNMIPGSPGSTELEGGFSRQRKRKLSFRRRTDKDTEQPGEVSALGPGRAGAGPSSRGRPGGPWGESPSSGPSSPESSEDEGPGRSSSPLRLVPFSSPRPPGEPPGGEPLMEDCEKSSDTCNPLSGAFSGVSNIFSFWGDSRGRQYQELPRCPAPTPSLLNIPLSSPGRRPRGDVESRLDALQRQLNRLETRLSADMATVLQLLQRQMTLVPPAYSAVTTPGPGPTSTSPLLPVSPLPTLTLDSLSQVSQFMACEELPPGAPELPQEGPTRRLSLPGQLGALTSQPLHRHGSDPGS

Hepatocyte [24] = experiment: Drug metabolism in mouse hepatocytes after 60 mins; format: ADME, cell-based; conditions: 1 h
[25] = biological target: Mitogen-activated protein kinase 14 (Homo sapiens, UniProt Q16539); experiment: Inhibition of p38alpha using MBP and [gamma33P]ATP as substrate after 60 mins by scintillation counting
Sequence of Mitogen-activated protein kinase 14 (Q16539 whole entry, the tested form may be a part): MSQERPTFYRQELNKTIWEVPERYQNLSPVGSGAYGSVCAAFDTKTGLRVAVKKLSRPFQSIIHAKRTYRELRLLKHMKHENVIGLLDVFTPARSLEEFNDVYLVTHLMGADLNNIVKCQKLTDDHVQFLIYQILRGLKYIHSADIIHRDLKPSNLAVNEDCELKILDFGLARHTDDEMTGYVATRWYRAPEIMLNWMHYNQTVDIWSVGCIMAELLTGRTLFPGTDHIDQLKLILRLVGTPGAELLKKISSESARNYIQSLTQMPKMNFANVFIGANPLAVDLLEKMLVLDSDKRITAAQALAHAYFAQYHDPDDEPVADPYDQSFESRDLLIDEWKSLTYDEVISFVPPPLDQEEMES

[26] = Half life in rat at 10 mg/kg, iv infusion; format: ADME, organism-based; set-up: dose 10 mg/kg, route intravenous; conditions: in vivo
Cytochrome P450 2D6 = Cytochrome P450 2D6 (Homo sapiens, UniProt P10635); experiment: Inhibition of recombinant CYP2D6 up to 30 uM; format: ADME; conditions: recombinant enzyme
Sequence of Cytochrome P450 2D6 (P10635 whole entry): as the sequence (P10635 whole entry) above

`N[C@H]1CC[C@H](Nc2ncc3nc(Nc4ccc(F)cc4F)n(C4CCCC4)c3n2)CC1` showed a remaining at 0.5 h, 3 µM [1] of 100%, an IC50 [2] of 350 nM and an MRT [3] of 40 h. It also gave a Vd [4] of 55 L/kg, a clearance [5] of 83 mL/min/kg and an IC50 [6] of 25 nM. The Vd [7] was 11 L/kg, the “inhibition (INH)” value (Cytochrome P450 2C9) was “Not Active” and the remaining at 0.5 h, 3 µM [8] was 100%. For the same molecule, the metabolised at 0.5 h (CYP2B6) was 14%, the IC50 (Rattus norvegicus [9]) was 1500 nM and the Activity (Rattus norvegicus [10]) was “Non-toxic”. For the same molecule, the Activity (Rattus norvegicus [11]) was “Non-toxic”, the metabolised at 0.5 h (CYP3A4) was 10% and the solubility thermodynamic [12] was 792 µg/mL (≈ 1850 µM). The metabolised at 0.5 h (CYP2D6) was 1.4%, the IC50 [13] was 270 nM and the remaining at 0.5 h, 3 µM [14] was 100%. It also gave a survival at 10 mg/kg (Rattus norvegicus [15]) of 80%, an IC50 [16] of 400 nM and a Vd [17] of 30 L/kg. For the same molecule, the AUC [18] was 3.8 µM·h, the IC50 [19] was 24 nM and the Drug metabolism (Hepatocyte [20]) was “Not Active”. It also gave a clearance [21] of 5 mL/min/kg, a remaining at 0.5 h, 3 µM [22] of 100% and an AUC [23] of 4.7 µM·h. For the same molecule, the inhibition in vivo at 60 mg/kg (Mus musculus) was 98%, the inhibition at 10 µM (hERG (KCNH2)) was 59% and the Drug metabolism (Hepatocyte [24]) was “Not Active”. For the same molecule, the IC50 [25] was 220 nM, the half-life [26] was 10 h and the “inhibition (INH)” value (Cytochrome P450 2D6) was “Not Active”.
